According to patent publication US9284297B2, “Halofuginone analogs for inhibition of tRNA synthetases and uses thereof” (President and Fellows of Harvard College, priority 2008, dated 2016):

Tested on: TGFβ-induced Smad phosphorylation and lymphocyte responses to TGFβ
Experiment: TGFβ signaling in T and B cells
Assay type: cell-based, murine
Details: low dose HF; 10 μM SB-431542
Experimental: FIG. 10. […] FIG. 10A is a set of FACS analyses of CD4^+ CD25^− T cells activated in Th1 or Th2 polarizing conditions, either in the presence or absence of TGFβ. DMSO, 10 nM HF, 10 nM MAZ1310, or 10 μM SB-431542 added as indicated at the time of activation. Intracellular cytokine staining was performed on expanded T cells on day 5.
FIG. 10D depicts western blot analyses of purified CD4^+ CD25^− T cells treated with DMSO, 40 nM MAZ1310, titrating concentrations of HF (2.5-40 nM) or 10 μM SB-431542 for 30 minutes in complete medium supplemented with 0.1% fetal calf serum. T cells were then activated in the presence or absence of 3 ng/ml TGFβ. Whole cell extracts were prepared after 1 hour of stimulation and western blot analyses were performed using the indicated antibodies.
Th17 differentiation is synergistically regulated by TGFβ and the pro-inflammatory cytokines IL-6 and IL-21. […] Since STAT3 is the major transducer of IL-6 and IL-21 signaling, the kinetics of STAT3 phosphorylation in HF-treated T cells were examined.
Whole cell lysates were generated from T cells activated for the indicated times. For STAT3 and Smad2/3 western blots cells were harvested, washed in PBS and lysed in 50 mM Tris, pH 7.4, 0.1% SDS, 1% Triton-X100, 140 mM NaCl, 1 mM EDTA, 1 mM EGTA supplemented with protease inhibitors tablets (Roche, Germany), 1 mM NaF and 1 mM Na3VO4. […]

NC(=O)c1ccc(-c2nc(-c3ccc4c(c3)OCO4)c(-c3ccccn3)[nH]2)cc1 [SB-431542]
effect on TGFβ-induced Smad phosphorylation and other lymphocyte responses to TGFβ: abrogated all responses to TGFβ
